The test has as its target T1, xKCC (Xenopus laevis, UniProt A0A1L8HZL0).
T1 sequence (A0A1L8HZL0 1-1133): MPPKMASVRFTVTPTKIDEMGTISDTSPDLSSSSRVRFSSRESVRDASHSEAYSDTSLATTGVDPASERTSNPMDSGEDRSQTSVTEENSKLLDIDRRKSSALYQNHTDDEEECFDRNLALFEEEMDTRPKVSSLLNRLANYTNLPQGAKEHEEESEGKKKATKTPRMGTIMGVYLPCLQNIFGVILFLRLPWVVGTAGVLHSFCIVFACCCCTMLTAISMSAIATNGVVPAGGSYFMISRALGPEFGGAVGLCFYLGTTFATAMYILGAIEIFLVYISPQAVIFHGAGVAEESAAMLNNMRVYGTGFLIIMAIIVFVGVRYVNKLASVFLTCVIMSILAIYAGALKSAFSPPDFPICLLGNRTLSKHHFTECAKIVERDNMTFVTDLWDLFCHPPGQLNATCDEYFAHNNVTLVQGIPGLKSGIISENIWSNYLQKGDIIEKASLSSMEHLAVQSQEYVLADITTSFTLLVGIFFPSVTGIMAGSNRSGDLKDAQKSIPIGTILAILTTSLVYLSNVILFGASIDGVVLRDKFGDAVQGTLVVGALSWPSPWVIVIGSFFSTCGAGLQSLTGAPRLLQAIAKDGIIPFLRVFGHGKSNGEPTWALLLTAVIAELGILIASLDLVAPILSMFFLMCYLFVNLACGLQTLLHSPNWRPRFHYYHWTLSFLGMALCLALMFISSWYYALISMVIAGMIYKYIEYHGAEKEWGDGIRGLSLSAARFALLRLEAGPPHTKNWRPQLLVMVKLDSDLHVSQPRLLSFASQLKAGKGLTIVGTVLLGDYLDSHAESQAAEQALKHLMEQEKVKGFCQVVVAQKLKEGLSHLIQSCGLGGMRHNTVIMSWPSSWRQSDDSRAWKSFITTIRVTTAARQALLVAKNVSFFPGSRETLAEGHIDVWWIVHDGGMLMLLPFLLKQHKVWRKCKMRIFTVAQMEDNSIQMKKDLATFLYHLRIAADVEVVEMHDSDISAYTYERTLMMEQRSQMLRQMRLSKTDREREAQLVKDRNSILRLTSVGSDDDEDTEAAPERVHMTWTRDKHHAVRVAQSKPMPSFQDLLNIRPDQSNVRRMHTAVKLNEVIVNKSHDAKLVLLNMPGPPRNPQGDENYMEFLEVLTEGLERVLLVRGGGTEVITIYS
The test can be described thus: 86Rb+ uptake by the endogenous K+-Cl- cotransporter of water-injected Xenopus oocytes. In kind it is cell-based. The note with it: for Km: xKCC. On the procedure: Oocytes were surgically collected from anesthetized female Xenopus adults under 0.17% tricaine and incubated for 1 hour with vigorous shaking in frog Ringer ND96 (96 mM sodium chloride, 2 mM potassium chloride, 1.8 mM calcium chloride, 1.0 mM magnesium chloride, and 5 mM Hepes/Tris, pH 7.4) in the presence of 2 mg/ml collagenase B. Oocytes were then washed four times in ND96, manually defolliculated, and incubated overnight in ND96 at 18° C. On the next day, defolliculated stage V–VI oocytes were injected with 50 nl of water or a solution containing cRNA at a concentration of 0.25–0.5 μg/μl (25 ng/oocyte). Oocytes were incubated at 17–18° C. in ND96 (96 mM sodium chloride, 2 mM potassium chloride, 1.8 mM calcium chloride, 1.0 mM magnesium chloride, and 5 mM Hepes/Tris, pH 7.4), supplemented with 2.5 mM sodium pyruvate and 5 mg/100 ml gentamicin, for 3–4 days. The incubation medium was changed every 24 hours. On the day of the experiment, oocytes were switched to Cl^−-free ND96 (96 mM Na^+ Na^+ isethionate, 2 mM K^+ gluconate, 6 mM Ca^2+ gluconate, 1 mM Mg^2+ gluconate, 5 mM Hepes, 2.5 mM sodium pyruvate, 5 mg/100 ml gentamicin, pH 7.4) for 2 hours prior to the uptake assay.
K^+—Cl^− cotransport was assessed by measuring tracer ^86Rb^+ uptake (NEN® Life Science Products of Boston, Mass.) in experimental groups of at least 15 oocytes. Since both KCC4 and KCC1 display minimal activity under isotonic conditions ^86Rb^+ uptake was generally assessed in oocytes swollen by a 30-minute incubation period in a hypotonic K^+ and Cl^−-free medium (50 mM N-methyl-D-glucamine (NMDG) gluconate, 4.6 mM Ca^2+ gluconate, 1.0 mM Mg^2+ gluconate, 5 mM Hepes, pH 7.4) with 1 mM ouabain, followed by a 60-minute uptake period in a hypotonic Na^+-free medium with variable K^+—Cl^− content. […] All uptake solutions also contained 1.8 mM CaCl2, 1 mM MgCl2, 5 mM Hepes, pH 7.4, and were supplemented with 1 mM ouabain and […] ^86Rb^+. […]
All uptake assays were performed at 32° C. […] Oocytes were dissolved in 10% SDS, and tracer activity was determined for each oocyte by β-scintillation counting.

Where two headings read alike, the source gives them in different places.

For the molecule `CCN1C(=O)C=CC1=O` [NEM, N-ethylmaleimide], for the setting “NEM, H2O-injected oocytes, both isotonic and hypotonic”, the “86Rb+ uptake due to endogenous oocyte K+-Cl- cotransporter” value was “significantly increased”.
By Km is commonly meant the substrate concentration at which the rate is half of its maximum. Regarding `[K+]` [Potassium], the Km (read-out: Potassium Km) turned out to be 27.7 mM.
Turning to `Cl` [Chloride], the Km (read-out: Chloride Km) turned out to be 15.4 mM.
